Test results from patent US8324226B2, “Therapeutic oxy-phenyl-aryl compounds and their use” (Cancer Research Technology Limited, priority 2007, dated 2012).
Values joined by “and” are separate entries in the source; they are usually repeats but may differ in a detail not shown here. Equal entries are not always repeated. Where two headings read alike, the source gives them in different places.

Biological target: T1, CHK2 (Homo sapiens, UniProt O96017)
T1 construct: made in house
Experiment: CHK2 kinase activity assay (DELFIA, phosphorylation of a CDC25C peptide)
Assay type: biochemical
Conditions: ATP 30 μM, CHK2 1 nM, read-out: IC50, inhibition of CHK2 kinase activity in vitro

T1 sequence (O96017 whole entry): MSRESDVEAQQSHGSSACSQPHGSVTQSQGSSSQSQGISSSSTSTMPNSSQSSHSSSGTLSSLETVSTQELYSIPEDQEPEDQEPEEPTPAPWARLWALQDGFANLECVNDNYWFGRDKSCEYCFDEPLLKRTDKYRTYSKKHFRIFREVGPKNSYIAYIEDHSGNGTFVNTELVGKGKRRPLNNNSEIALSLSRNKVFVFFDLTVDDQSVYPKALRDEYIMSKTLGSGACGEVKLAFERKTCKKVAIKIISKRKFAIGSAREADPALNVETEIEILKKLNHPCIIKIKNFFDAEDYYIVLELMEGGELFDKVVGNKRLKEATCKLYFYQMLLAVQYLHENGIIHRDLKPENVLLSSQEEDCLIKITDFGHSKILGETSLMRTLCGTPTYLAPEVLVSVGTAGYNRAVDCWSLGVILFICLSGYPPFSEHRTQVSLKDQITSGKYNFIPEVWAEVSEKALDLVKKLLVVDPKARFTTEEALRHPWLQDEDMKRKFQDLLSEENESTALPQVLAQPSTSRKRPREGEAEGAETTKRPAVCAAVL

Row | Structure (SMILES) | IC50 (first set of tested compounds) [µM] | IC50 (following further studies)
1 | Oc1ccccc1-c1nc(N[C@H]2CCNC2)c2cc(-c3cn[nH]c3)ccc2n1 [Compound A-029, (S)-2-(6-(1H-Pyrazol-4-yl)-4-(pyrrolidin-3-ylamino)quinazolin-2-yl)phenol] | < 3 | 0.3 to 3 µM
2 | CC(C)(C)c1ccc(O)c(-c2nc(N[C@H]3CCNC3)c3ccccc3n2)c1 [Compound A-022, (S)-4-tert-Butyl-2-(4-(pyrrolidin-3-ylamino)quinazolin-2-yl)phenol] | 3 to 30 | 3 to 30 µM
3 | Oc1ccc(-c2ccsc2)cc1-c1nc(N[C@H]2CCNC2)c2ccccc2n1 [Compound A-108, (S)-2-(4-(Pyrrolidin-3-ylamino)quinazolin-2-yl)-4-(thiophen-3-yl)phenol] | – | 0.3 to 3 µM
4 | Oc1ccc(F)cc1-c1nc(N[C@H]2CCNC2)c2ccc(-c3cn[nH]c3)cc2n1 [Compound A-068, (S)-2-(7-(1H-Pyrazol-4-yl)-4-(pyrrolidin-3-ylamino)quinazolin-2-yl)-4-fluorophenol] | – | ≤ 0.3 µM
5 | CN1CCC[C@@H](Nc2nc(-c3ccccc3O)nc3ccccc23)C1 [Compound A-008, 2-[4-((R)-1-Methylpiperidin-3-ylamino)-quinazolin-2-yl]-phenol] | < 3 | 0.3 to 3 µM
6 | Oc1ccccc1-c1cc(N[C@H]2CCNC2)c2ccccc2n1 [Compound C-001, (S)-2-(4-(Pyrrolidin-3-ylamino)quinolin-2-yl)phenol] | 3 to 30 | 3 to 30 µM and 4.4 µM
7 | OCC#Cc1ccc2c(N[C@H]3CCNC3)nc(-c3cc(F)ccc3O)nc2c1 [Compound A-072, (S)-4-Fluoro-2-(7-(3-hydroxyprop-1-ynyl)-4-(pyrrolidin-3-ylamino)quinazolin-2-yl)phenol] | – | ≤ 0.3 µM
8 | CN(c1nc(-c2cc(Cl)ccc2O)nc2ccccc12)[C@H]1CCNC1 [Compound A-044, (S)-4-Chloro-2-(4-(methyl(pyrrolidin-3-yl)amino)quinazolin-2-yl)phenol] | < 3 | ≤ 0.3 µM
9 | CNC(=O)[C@H]1C[C@H](Nc2nc(-c3ccccc3O)nc3ccccc23)CN1 [Compound A-032, (2R,4S)-4-(2-(2-Hydroxyphenyl)quinazolin-4-ylamino)-N-methylpyrrolidine-2-carboxamide] | < 3 | 0.3 to 3 µM
10 | Oc1ccc(F)cc1-c1nc(N[C@@H]2CNC[C@H]2c2cccc(Cl)c2)c2ccccc2n1 (relative stereo) [Compound A-083] | – | 0.3 to 3 µM
11 | O=C(NCc1ccccc1)[C@H]1C[C@H](Nc2nc(-c3ccccc3O)nc3ccccc23)CN1 [Compound A-031, (2R,4S)-N-Benzyl-4-(2-(2-hydroxyphenyl)quinazolin-4-ylamino)pyrrolidine-2-carboxamide] | < 3 | 0.3 to 3 µM
12 | CC(C)(O)C#Cc1ccc2nc(-c3cc(F)ccc3O)nc(N[C@H]3CCNC3)c2c1 [Compound A-109, (S)-4-Fluoro-2-(6-(3-hydroxy-3-methylbut-1-ynyl)-4-(pyrrolidin-3-ylamino)quinazolin-2-yl)phenol] | – | 0.3 to 3 µM
13 | Oc1ccc(F)cc1-c1nc(NC2CCCNCC2)c2ccccc2n1 (centres unmarked) [Compound A-060, 2-(4-(Azepan-4-ylamino)quinazolin-2-yl)-4-fluorophenol] | – | ≤ 0.3 µM
14 | CCNC(=O)[C@H]1C[C@H](Nc2nc(-c3ccccc3O)nc3ccccc23)CN1 [Compound A-051, (2R,4S)-N-Ethyl-4-(2-(2-hydroxyphenyl)quinazolin-4-ylamino)pyrrolidine-2-carboxamide] | < 3 | 0.3 to 3 µM
15 | O=C([C@H]1C[C@H](Nc2nc(-c3ccccc3O)nc3ccccc23)CN1)N1CCNCC1 [Compound A-035, ((2R,4S)-4-(2-(2-Hydroxyphenyl)quinazolin-4-ylamino)pyrrolidin-2-yl)(piperazin-1-yl)methanone] | < 3 | 0.3 to 3 µM
16 | O=C(O)[C@@H]1CNC[C@H]1Nc1nc(-c2cc(F)ccc2O)nc2ccccc12 (relative stereo) [Compound A-089, trans-4-(2-(5-Fluoro-2-hydroxyphenyl)quinazolin-4-ylamino)pyrrolidine-3-carboxylic acid] | – | 0.3 to 3 µM
17 | CCN(C)C(=O)[C@H]1C[C@H](Nc2nc(-c3ccccc3O)nc3ccccc23)CN1 [Compound A-050, (2R,4S)-N-Ethyl-4-(2-(2-hydroxyphenyl)quinazolin-4-ylamino)-N-methylpyrrolidine-2-carboxamide] | < 3 | ≤ 0.3 µM
18 | CN1CCN(C(=O)[C@H]2C[C@H](Nc3nc(-c4ccccc4O)nc4ccccc34)CN2)CC1 [Compound A-036, ((2R,4S)-4-(2-(2-Hydroxyphenyl)quinazolin-4-ylamino)pyrrolidin-2-yl)(4-methylpiperazin-1-yl)methanone] | < 3 | 0.3 to 3 µM
19 | Oc1ccc(Cl)cc1-c1nc(NC2CCCNCC2)c2ccccc2n1 (centres unmarked) [Compound A-057, 2-(4-(Azepan-4-ylamino)quinazolin-2-yl)-4-chlorophenol] | – | ≤ 0.3 µM
20 | Oc1ccc(F)cc1-c1nc(N[C@H]2CCNC2)c2ccc(F)cc2n1 [Compound A-114, (S)-4-Fluoro-2-(7-fluoro-4-(pyrrolidin-3-ylamino)quinazolin-2-yl)phenol] | – | ≤ 0.3 µM

Row | Structure (SMILES) | IC50 (first set of tested compounds) [µM] | IC50 (following further studies)
21 | Oc1ccccc1-c1nc(N[C@H]2CCNC2)c2ccc(-c3ccccc3)cc2n1 [Compound A-020, (S)-2-(7-phenyl-4-(pyrrolidinyl-3-ylamino)quinazolin-2-yl)phenol] | < 3 | 0.3 to 3 µM
22 | CC(C)(O)CCc1ccc2c(N[C@H]3CCNC3)nc(-c3cc(F)ccc3O)nc2c1 [Compound A-097, (S)-4-Fluoro-2-(7-(3-hydroxy-3-methylbutyl)-4-(pyrrolidin-3-ylamino)quinazolin-2-yl)phenol] | – | ≤ 0.3 µM
23 | OCC#Cc1ccc2nc(-c3ccccc3O)nc(N[C@H]3CCNC3)c2c1 [Compound A-052, (S)-2-(6-(3-hydroxyprop-1-ynyl)-4-(pyrrolidin-3-ylamino)quinazolin-2-yl)phenol] | < 3 | ≤ 0.3 µM
24 | COc1ccccc1[C@@H]1CNC[C@H]1Nc1nc(-c2cc(F)ccc2O)nc2ccccc12 (relative stereo) [Compound A-092, 4-Fluoro-2-(4-trans(4-(2-methoxyphenyl)pyrrolidin-3-ylamino)quinazolin-2-yl)phenol] | – | 0.3 to 3 µM
25 | Oc1ccccc1-c1nc(N[C@H]2CCNC2)c2ccc(-c3ccc(CN4CCOCC4)cc3)cc2n1 [Compound A-027, (S)-2-(7-(4-(Morpholinomethyl)phenyl)-4-(pyrrolidin-3-ylamino)quinazolin-2-yl)phenol] | < 3 | ≤ 0.3 µM
26 | NC1CCCC(Nc2nc(-c3ccccc3O)nc3ccccc23)C1 (centres unmarked) [Compound B-004, 2-[4-(3-Aminocyclohexylamino)-quinazolin-2-yl]-phenol] | < 3 | 0.3 to 3 µM
27 | COCCOc1cc2nc(-c3cc(F)ccc3O)nc(N[C@H]3CCNC3)c2cc1OCCOC [Compound A-104, (S)-2-(6,7-bis(2-Methoxyethoxy)-4-(pyrrolidin-3-ylamino)quinazolin-2-yl)-4-fluorophenol] | – | ≤ 0.3 µM
28 | N[C@@H]1CCCC[C@H]1Nc1nc(-c2ccccc2O)nc2ccccc12 (relative stereo) [Compound B-003, 2-[4-(trans-2-Aminocyclohexylamino)-quinazolin-2-yl]-phenol] | < 3 | 0.3 to 3 µM
29 | COc1ccc2c(N[C@@H]3CN[C@@H](CO)C3)nc(-c3cc(F)ccc3O)nc2c1 [Compound A-087, 4-Fluoro-2-(4-((3S,5R)-5-(hydroxymethyl)pyrrolidin-3-ylamino)-7-methoxyquinazolin-2-yl)phenol] | – | ≤ 0.3 µM
30 | O=C([C@H]1C[C@H](Nc2nc(-c3ccccc3O)nc3ccccc23)CN1)N1CCC1 [Compound A-049, Azetidin-1-yl((2R,4S)-4-(2-(2-hydroxyphenyl)quinazolin-4-ylamino)pyrrolidin-2-yl)methanone] | < 3 | 0.3 to 3 µM
31 | Cn1cc(-c2ccc3c(N[C@H]4CCNC4)nc(-c4ccccc4O)nc3c2)cn1 [Compound A-066, (S)-2-(7-(1-Methyl-1H-pyrazol-4-yl)-4-(pyrrolidin-3-ylamino)quinazolin-2-yl)phenol] | – | ≤ 0.3 µM
32 | N[C@@H]1CCCC[C@@H]1Nc1nc(-c2ccccc2O)nc2ccccc12 (relative stereo) [Compound B-002] | 3 to 30 | 3 to 30 µM and 3.8 µM
33 | CN1CCCC(Nc2nc(-c3ccccc3O)nc3ccccc23)C1 (centres unmarked) [Compound A-001, 2-[4-(1-Methyl-piperidin-3-yl-amino)-quinazolin-2-yl]-phenol] | < 3 | 0.3 to 3 µM and 1.6 µM
34 | OCCCc1ccc2c(N[C@H]3CCNC3)nc(-c3cc(F)ccc3O)nc2c1 [Compound A-071, (S)-4-Fluoro-2-(7-(3-hydroxypropyl)-4-(pyrrolidin-3-ylamino)quinazolin-2-yl)phenol] | – | ≤ 0.3 µM
35 | COCCOc1ccc2nc(-c3cc(F)ccc3O)nc(N[C@H]3CCNC3)c2c1 [Compound A-095, (S)-4-Fluoro-2-(6-(2-methoxyethoxy)-4-(pyrrolidin-3-ylamino)quinazolin-2-yl)phenol] | – | ≤ 0.3 µM
36 | COc1ccc2nc(-c3cc(F)ccc3O)nc(N[C@H]3CCNC3)c2c1 [Compound A-073, (S)-4-Fluoro-2-(6-methoxy-4-(pyrrolidin-3-ylamino)quinazolin-2-yl)phenol] | – | ≤ 0.3 µM
37 | NC1CCC(Nc2nc(-c3ccccc3O)nc3ccccc23)CC1 (centres unmarked) [Compound B-001, 2-[4-(4-Aminocyclohexylamino)-quinazolin-2-yl]-phenol] | 3 to 30 | 3 to 30 µM
38 | Oc1ccc(F)cc1-c1nc(N[C@@H]2CCCNC2)c2ccccc2n1 [Compound A-014, (R)-4-Fluoro-2-(4-(piperidin-3-ylamino)quinazolin-2-yl)phenol] | < 3 | ≤ 0.3 µM
39 | COC(=O)[C@H]1C[C@H](Nc2nc(-c3cc(Cl)ccc3O)nc3ccccc23)CN1 [Compound A-026, (2R,4S)-Methyl 4-(2-(5-chloro-2-hydroxyphenyl)quinazolin-4-ylamino)pyrrolidine-2-carboxylate] | < 3 | ≤ 0.3 µM
40 | Oc1ccc(-c2cccc(F)c2)cc1-c1nc(N[C@H]2CCNC2)c2ccccc2n1 [Compound A-107, (S)-3′-Fluoro-3-(4-(pyrrolidin-3-ylamino)quinazolin-2-yl)biphenyl-4-ol] | – | 0.3 to 3 µM
